# Experiments:
# Test in all cases: cells
# ES5 = format: functional, cell-based, Homo sapiens; conditions: Homo sapiens, ES5;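 also: growth inhibition of human ES5 cells, read out by a cell viability assay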
# Description: SANGER: Inhibition of human ES5 cell growth in a cell viability assay.
# TE-11 = format: functional, cell-based, Homo sapiens; conditions: Homo sapiens, TE-11;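 also: growth inhibition of human TE-11 cells, read out by a cell viability assay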
# Description: SANGER: Inhibition of human TE-11 cell growth in a cell viability assay.
# NUGC-3 = format: functional, cell-based, Homo sapiens; conditions: Homo sapiens, NUGC-3;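 also: growth inhibition of human NUGC-3 cells, read out with a cell viability assay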
# Description: SANGER: Inhibition of human NUGC-3 cell growth in a cell viability assay.
# NB12 = format: functional, cell-based, Homo sapiens; conditions: Homo sapiens, NB12;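 also: growth inhibition of human NB12 cells, read out by a cell viability assay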
# Description: SANGER: Inhibition of human NB12 cell growth in a cell viability assay.
# Ramos-2G6-4C10 = format: functional, cell-based; conditions: Homo sapiens;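 also: growth inhibition of the cell line, measured by a cell viability read-out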
# Description: SANGER: Inhibition of human Ramos-2G6-4C10 cell growth in a cell viability assay.
# NCI-H520 = format: functional, cell-based, Homo sapiens; conditions: Homo sapiens, NCI-H520;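 also: growth inhibition of NCI-H520 cells, measured by a cell viability assay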
# Description: SANGER: Inhibition of human NCI-H520 cell growth in a cell viability assay.
# HCC1569 = format: functional, cell-based, Homo sapiens; conditions: Homo sapiens, HCC1569;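 also: growth inhibition of human HCC1569 cells, read out with a cell viability assay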
# Description: SANGER: Inhibition of human HCC1569 cell growth in a cell viability assay.
# TGBC24TKB = format: functional, cell-based, Homo sapiens; conditions: Homo sapiens, TGBC24TKB;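 also: growth inhibition of human TGBC24TKB cells, read out with a cell viability assay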
# Description: SANGER: Inhibition of human TGBC24TKB cell growth in a cell viability assay.
# DMS-273 = format: functional, cell-based, Homo sapiens; conditions: Homo sapiens, DMS-273
# Description: SANGER: Inhibition of human DMS-273 cell growth in a cell viability assay.
# D283 Med = format: functional, cell-based, Homo sapiens; conditions: Homo sapiens, D283 Med
# Description: SANGER: Inhibition of human D-283MED cell growth in a cell viability assay.
# DoTc2-4510 = format: functional, cell-based, Homo sapiens; conditions: Homo sapiens, DoTc2-4510
# SK-OV-3 = format: functional, cell-based, Homo sapiens; conditions: Homo sapiens, SK-OV-3;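 also: growth inhibition of SK-OV-3 human cells, read out with a cell viability assay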
# Description: SANGER: Inhibition of human SK-OV-3 cell growth in a cell viability assay.
# KOSC-2 = format: functional, cell-based, Homo sapiens; conditions: Homo sapiens, KOSC-2;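 also: growth inhibition of KOSC-2 cells, read out by a cell viability assay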
# Description: SANGER: Inhibition of human KOSC-2 cell growth in a cell viability assay.
# TYK-nu = format: functional, cell-based, Homo sapiens; conditions: Homo sapiens, TYK-nu;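 also: growth inhibition of human TYK-nu cells, read out by a cell viability assay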
# Description: SANGER: Inhibition of human TYK-nu cell growth in a cell viability assay.
# HH = format: functional, cell-based; conditions: Homo sapiens
# Description: SANGER: Inhibition of human HH cell growth in a cell viability assay.
# A2780 = format: functional, cell-based, Homo sapiens; conditions: Homo sapiens, A2780;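 also: growth inhibition of A2780 cells, read out with a cell viability assay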
# Description: SANGER: Inhibition of human A2780 cell growth in a cell viability assay.
# SAS = format: functional, cell-based, Homo sapiens; conditions: Homo sapiens, SAS;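 also: growth inhibition of SAS cells, read out with a cell viability assay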
# Description: SANGER: Inhibition of human SAS cell growth in a cell viability assay.
# NCI-H2126 = format: functional, cell-based, Homo sapiens; conditions: Homo sapiens, NCI-H2126;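 also: growth inhibition of the cancer cell line, determined with a cell viability readout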
# Description: SANGER: Inhibition of human NCI-H2126 cell growth in a cell viability assay.
# PANC-08-13 = format: functional, cell-based, Homo sapiens; conditions: Homo sapiens, PANC-08-13;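 also: cell growth inhibition, measured with a cell viability assay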
# Description: SANGER: Inhibition of human PANC-08-13 cell growth in a cell viability assay.
# CAMA-1 = format: functional, cell-based, Homo sapiens; conditions: Homo sapiens, CAMA-1;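 also: growth inhibition of CAMA-1 cells, read out with a cell viability assay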
# Description: SANGER: Inhibition of human CAMA-1 cell growth in a cell viability assay.
# COLO-829 = format: functional, cell-based, Homo sapiens; conditions: Homo sapiens, COLO-829
# Description: SANGER: Inhibition of human COLO-829 cell growth in a cell viability assay.
# LK-2 = format: functional, cell-based, Homo sapiens; conditions: Homo sapiens, LK-2;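 also: growth inhibition of LK-2 cells, read out with a viability assay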
# Description: SANGER: Inhibition of human LK-2 cell growth in a cell viability assay.
# WM-115 = format: functional, cell-based, Homo sapiens; conditions: Homo sapiens, WM-115
# Description: SANGER: Inhibition of human WM-115 cell growth in a cell viability assay.
# NB14 = format: functional, cell-based; conditions: Homo sapiens;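 also: growth inhibition of NB14 cells measured with a cell viability assay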
# Description: SANGER: Inhibition of human NB14 cell growth in a cell viability assay.
# GOTO = format: functional, cell-based, Homo sapiens; conditions: Homo sapiens, GOTO;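 also: growth inhibition of GOTO cells, read out by a cell viability assay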
# Description: SANGER: Inhibition of human GOTO cell growth in a cell viability assay.
# U2OS = format: functional, cell-based, Homo sapiens, U-2-OS; conditions: Homo sapiens, U2OS;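 also: growth inhibition of human U-2-OS cells, determined with a cell viability assay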
# Description: SANGER: Inhibition of human U-2-OS cell growth in a cell viability assay.
# MKN-45 = format: functional, cell-based, Homo sapiens; conditions: Homo sapiens, MKN-45;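 also: growth inhibition of human MKN-45 cells, measured with a cell viability assay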
# Description: SANGER: Inhibition of human MKN45 cell growth in a cell viability assay.
# Capan-2 = format: functional, cell-based, Homo sapiens; conditions: Homo sapiens, Capan-2;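 also: Capan-2 cell growth inhibition, read out with a viability assay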
# Description: SANGER: Inhibition of human Capan-2 cell growth in a cell viability assay.
# LB771-HNC = format: functional, cell-based, Homo sapiens; conditions: Homo sapiens, LB771-HNC;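 also: growth inhibition of LB771-HNC human cells, read out with a cell viability assay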
# Description: SANGER: Inhibition of human LB771-HNC cell growth in a cell viability assay.
# RH-1 = format: functional, cell-based, Homo sapiens; conditions: Homo sapiens, RH-1;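 also: growth inhibition of human RH-1 cells, read out with a cell viability assay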
# Description: SANGER: Inhibition of human RH-1 cell growth in a cell viability assay.
# HCC2157 = format: functional, cell-based; conditions: Homo sapiens;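 also: growth inhibition of the cancer cell line, read out as cell viability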
# Description: SANGER: Inhibition of human HCC2157 cell growth in a cell viability assay.
# A3-KAW = format: functional, cell-based; conditions: Homo sapiens;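 also: growth inhibition of human A3-KAW cells, read out with a cell viability assay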
# Description: SANGER: Inhibition of human A3-KAW cell growth in a cell viability assay.
# NB5 = format: functional, cell-based, Homo sapiens; conditions: Homo sapiens, NB5;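 also: growth inhibition of NB5 cells, read out as cell viability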
# Description: SANGER: Inhibition of human NB5 cell growth in a cell viability assay.
# BE-13 = format: functional, cell-based; conditions: Homo sapiens;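 also: growth inhibition of human BE-13 cells, measured with a cell viability assay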
# Description: SANGER: Inhibition of human BE-13 cell growth in a cell viability assay.
# KYSE-450 = format: functional, cell-based; conditions: Homo sapiens;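 also: cell growth inhibition measured by a viability assay in human KYSE-450 cells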
# Description: SANGER: Inhibition of human KYSE-450 cell growth in a cell viability assay.
# TE-6 = format: functional, cell-based, Homo sapiens; conditions: Homo sapiens, TE-6;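 also: growth inhibition of TE-6 cells, read out with a cell viability assay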
# Description: SANGER: Inhibition of human TE-6 cell growth in a cell viability assay.
# ETK-1 = format: functional, cell-based, Homo sapiens; conditions: Homo sapiens, ETK-1;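 also: growth inhibition of human ETK-1 cells, read out with a cell viability assay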
# Description: SANGER: Inhibition of human ETK-1 cell growth in a cell viability assay.
# Ca-Ski = format: functional, cell-based; conditions: Homo sapiens;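 also: cell viability assay measuring inhibition of Ca-Ski cell growth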
# Description: SANGER: Inhibition of human Ca-Ski cell growth in a cell viability assay.
# ES4 = format: functional, cell-based, Homo sapiens; conditions: Homo sapiens, ES4;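 also: growth inhibition of human ES4 cells, read out by a cell viability assay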
# Description: SANGER: Inhibition of human ES4 cell growth in a cell viability assay.
# MV4-11 = format: functional, cell-based, MV-4-11; conditions: Homo sapiens;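 also: cell viability readout measuring growth inhibition of human MV-4-11 cells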
# Description: SANGER: Inhibition of human MV-4-11 cell growth in a cell viability assay.
# SK-PN-DW = format: functional, cell-based; conditions: Homo sapiens;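 also: growth inhibition measured with a viability assay on these cells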
# Description: SANGER: Inhibition of human SK-PN-DW cell growth in a cell viability assay.
# VMRC-RCZ = format: functional, cell-based; conditions: Homo sapiens;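 also: growth inhibition measured with a cell viability assay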
# Description: SANGER: Inhibition of human VMRC-RCZ cell growth in a cell viability assay.
# BHT-101 = format: functional, cell-based, Homo sapiens; conditions: Homo sapiens, BHT-101
# Description: SANGER: Inhibition of human BHT-101 cell growth in a cell viability assay.
# ACN = format: functional, cell-based, Homo sapiens; conditions: Homo sapiens, ACN;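 also: growth inhibition of the human ACN cell line, read out via cell viability testing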
# Description: SANGER: Inhibition of human ACN cell growth in a cell viability assay.
# DBTRG-05MG = format: functional, cell-based, Homo sapiens; conditions: Homo sapiens, DBTRG-05MG;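 also: cell viability assay measuring growth inhibition of human DBTRG-05MG cells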
# Description: SANGER: Inhibition of human DBTRG-05MG cell growth in a cell viability assay.
# NCI-H1563 = format: functional, cell-based, Homo sapiens; conditions: Homo sapiens, NCI-H1563;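 also: growth inhibition of human NCI-H1563 cells, read out with a cell viability assay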
# Description: SANGER: Inhibition of human NCI-H1563 cell growth in a cell viability assay.
# EFO-27 = format: functional, cell-based, Homo sapiens; conditions: Homo sapiens, EFO-27;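 also: growth inhibition of EFO-27 cells, read out with a cell viability assay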
# Description: SANGER: Inhibition of human EFO-27 cell growth in a cell viability assay.
# SCC-4 = format: functional, cell-based, Homo sapiens; conditions: Homo sapiens, SCC-4;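 also: growth inhibition of human SCC-4 cells, read out as cell viability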
# Description: SANGER: Inhibition of human SCC-4 cell growth in a cell viability assay.
# NH-12 = format: functional, cell-based, Homo sapiens; conditions: Homo sapiens, NH-12;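 also: growth inhibition of NH-12 cells, read out with a cell viability assay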
# Description: SANGER: Inhibition of human NH-12 cell growth in a cell viability assay.
# HCC70 = format: functional, cell-based, Homo sapiens; conditions: Homo sapiens, HCC70;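 also: cell viability assay measuring how strongly the compound suppresses proliferation of HCC70 cells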
# Description: SANGER: Inhibition of human HCC70 cell growth in a cell viability assay.
# HC-1 = format: functional, cell-based; conditions: Homo sapiens;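 also: growth inhibition of HC-1 cells measured by a cell viability assay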
# Description: SANGER: Inhibition of human HC-1 cell growth in a cell viability assay.
# LB373-MEL-D = format: functional, cell-based, Homo sapiens; conditions: Homo sapiens, LB373-MEL-D;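 also: growth inhibition of the cell line, read out in a cell viability assay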
# Description: SANGER: Inhibition of human LB373-MEL-D cell growth in a cell viability assay.
smiles,measurement,setting,value
O=C1N=C(NCc2cccs2)S/C1=C\c1ccc2ncccc2c1,IC50,ES5,> 5 µM
same,IC50,TE-11,> 5000 nM
same,IC50,NUGC-3,> 5 µM
same,IC50,NB12,> 5 µM
same,IC50,Ramos-2G6-4C10,> 5 µM
same,IC50,NCI-H520,> 5 µM
same,IC50,HCC1569,> 5 µM
same,IC50,TGBC24TKB,> 5 µM
same,IC50,DMS-273,> 5 µM
same,IC50,D283 Med,> 5 µM
same,IC50,DoTc2-4510,> 5 µM
same,IC50,SK-OV-3,> 5 µM
same,IC50,KOSC-2,3.45 µM
same,IC50,TYK-nu,> 5 µM
same,IC50,HH,> 5 µM
same,IC50,A2780,> 5 µM
same,IC50,SAS,> 5 µM
same,IC50,NCI-H2126,> 5 µM
same,IC50,PANC-08-13,> 5 µM
same,IC50,CAMA-1,> 5 µM
same,IC50,COLO-829,> 5000 nM
same,IC50,LK-2,> 5 µM
same,IC50,WM-115,> 5 µM
same,IC50,NB14,> 5 µM
same,IC50,GOTO,> 5 µM
same,IC50,U2OS,> 5 µM
same,IC50,MKN-45,> 5 µM
same,IC50,Capan-2,> 5 µM
same,IC50,LB771-HNC,> 5 µM
same,IC50,RH-1,> 5 µM
same,IC50,HCC2157,> 5 µM
same,IC50,A3-KAW,> 5 µM
same,IC50,NB5,> 5 µM
same,IC50,BE-13,> 5 µM
same,IC50,KYSE-450,> 5 µM
same,IC50,TE-6,> 5 µM
same,IC50,ETK-1,> 5000 nM
same,IC50,Ca-Ski,> 5 µM
same,IC50,ES4,> 5 µM
same,IC50,MV4-11,> 5000 nM
same,IC50,SK-PN-DW,> 5 µM
same,IC50,VMRC-RCZ,> 5 µM
same,IC50,BHT-101,> 5 µM
same,IC50,ACN,> 5000 nM
same,IC50,DBTRG-05MG,> 5 µM
same,IC50,NCI-H1563,> 5 µM
same,IC50,EFO-27,> 5000 nM
same,IC50,SCC-4,> 5 µM
same,IC50,NH-12,> 5 µM
same,IC50,HCC70,> 5 µM
CN(c1ncccc1CNc1nc(Nc2ccc3c(c2)CC(=O)N3)ncc1C(F)(F)F)S(C)(=O)=O [PF-00562271],IC50,ES5,> 2.56 µM
same,IC50,TE-11,1640 nM
same,IC50,NUGC-3,> 2.56 µM
same,IC50,NB12,> 2.56 µM
same,IC50,Ramos-2G6-4C10,> 2.56 µM
same,IC50,NCI-H520,> 2.56 µM
same,IC50,HCC1569,> 2.56 µM
same,IC50,TGBC24TKB,> 2.56 µM
same,IC50,DMS-273,> 2.56 µM
same,IC50,D283 Med,> 2.56 µM
same,IC50,DoTc2-4510,> 2.56 µM
same,IC50,SK-OV-3,> 2.56 µM
same,IC50,KOSC-2,> 2.56 µM
same,IC50,TYK-nu,> 2.56 µM
same,IC50,HH,> 2.56 µM
same,IC50,A2780,> 2.56 µM
same,IC50,SAS,> 2.56 µM
same,IC50,NCI-H2126,> 2.56 µM
same,IC50,PANC-08-13,> 2.56 µM
same,IC50,CAMA-1,> 2.56 µM
same,IC50,COLO-829,752 nM
same,IC50,LK-2,> 2.56 µM
same,IC50,WM-115,> 2.56 µM
same,IC50,GOTO,> 2.56 µM
same,IC50,U2OS,> 2.56 µM
same,IC50,MKN-45,> 2.56 µM
same,IC50,Capan-2,> 2.56 µM
same,IC50,LB771-HNC,> 2.56 µM
same,IC50,RH-1,> 2.56 µM
same,IC50,HCC2157,> 2.56 µM
same,IC50,A3-KAW,> 2.56 µM
same,IC50,NB5,> 2.56 µM
same,IC50,BE-13,> 2.56 µM
same,IC50,KYSE-450,> 2.56 µM
same,IC50,TE-6,> 2.56 µM
same,IC50,ETK-1,2280 nM
same,IC50,Ca-Ski,> 2.56 µM
same,IC50,ES4,> 2.56 µM
same,IC50,HC-1,> 2560 nM
same,IC50,MV4-11,277 nM
same,IC50,SK-PN-DW,> 2.56 µM
same,IC50,VMRC-RCZ,> 2.56 µM
same,IC50,BHT-101,> 2.56 µM
same,IC50,ACN,2350 nM
same,IC50,DBTRG-05MG,> 2.56 µM
same,IC50,NCI-H1563,> 2.56 µM
same,IC50,EFO-27,2520 nM
same,IC50,LB373-MEL-D,> 2560 nM
same,IC50,SCC-4,> 2.56 µM
same,IC50,NH-12,> 2.56 µM
same,IC50,HCC70,> 2.56 µM
